Patent US20260109712A1, “RIFAMYCINS FOR NONTUBERCULOUS MYCOBACTERIA” (priority 2022, published 2026)
≈ marks a conversion by molar mass, not a printed value. Read-outs that look alike come from different tables or passages of the source.

Experiments:
[1] = tested on: M. abscessus ATCC 19977; assay: MIC assay in 96-well plate format, wild-type strain; type: cell-based, Mycobacterium abscessus; settings: for MIC ratio: WT MIC/Δarr strain MIC
Experimental: (§1) MIC determination was carried out in 96-well plate format as previously described.^[13-14] 96-well plates were initially set up with 100 μL of 7H9 per well. For each compound, a ten-point two-fold dilution series starting at twice the desired highest concentration was dispensed onto the 96-well plates using a Tecan D300e Digital Dispenser, with the DMSO concentration normalized to 2%. M. abscessus culture grown to mid-log phase (OD600=0.4-0.6) was diluted to OD600=0.1 (1×10^7 CFU/mL). […] Untreated control wells are included on each plate that contain bacteria suspension and 1% DMSO. Plates were sealed with parafilm, stored in boxes with wet paper towels and incubated at 37° C. with shaking (110 RPM). Plates were incubated for 3 days. To determine growth, OD600 was measured using a Tecan Infinite M200 plate reader on Day 0 and Day 3. Two biological replicates were performed. Clarithromycin was included in each experiment as a positive control.
(§2) For each well on the 96-well plate, bacterial growth was calculated by subtracting the Day 0 OD600 value from the Day 3 OD600 value. […] For compound-containing wells, percentage growth was calculated by dividing their growth values by the average drug-free bacterial growth for the compound series and multiplying by 100. For each compound series, we plotted percentage growth versus compound concentration.

[2] = tested on: Δarr M. abscessus; assay: MIC assay, isogenic arr-deleted strain; type: cell-based, Mycobacterium abscessus; settings: arr-deleted strain; 90% growth inhibition
Experimental: as §1, §2

[3] = Plasma protein binding assay (rapid equilibrium dialysis); type: in vitro ADME; settings: 4 h, 10000 ng/mL
Experimental: DMSO stocks were spiked into plasma to a concentration of 10,000 ng/mL. 200 μL of spiked plasma was pipetted into the sample chamber of the rapid equilibrium dialysis (RED) cartridge. 350 μL of PBS was added to the adjacent cartridge. The plate containing the RED was sealed and incubated at 37° C. on the thermomixer at 300 RPM for 4 h. After incubation, 50 μL aliquots of plasma were removed and added to 50 μL of blank plasma in a deep well plate (1:1). Similarly, 50 μL aliquots of PBS were removed and added to 50 μL of blank plasma. This created an identical matrix between buffer and non-buffer samples. Samples were processed and quantified as specified in the LC-MS/MS analytical method.

[4] = M. abscessus ATCC 19977, 90% growth inhibition, read-out: WT Mab MIC
[5] = Mycobacterium abscessus ATCC 19977, Table 11, read-out: MIC
[6] = Mycobacteroides abscessus, ATCC19977, Table 15, heterocyclic aromatic carbamates, read-out: WT Mab MIC

Compound	MIC [1, 4]	MIC ratio [1]	Δarr Mab MIC [2]	MIC [1, 5]	further results
CCC(C)C(=O)OC1C(C)C(OC)C=COC2(C)Oc3c(C)c(O)c4c(c3C2=O)C2=NC3(CCN(CC(C)C)CC3)NC2=C(NC(=O)C(C)=CC=CC(C)C(O)C(C)C(O)C1C)C4=O (mixture of isomers) [5k]	1.1 µM	39.3	0.028 µM		
CO[C@H]1/C=C/O[C@@]2(C)Oc3c(C)c(O)c4c(c3C2=O)C2=NC3(CCN(CC(C)C)CC3)NC2=C(NC(=O)/C(C)=C/C=C/[C@H](C)[C@H](O)[C@@H](C)[C@@H](O)[C@@H](C)[C@H](OC(=O)c2cccc(C)c2)[C@@H]1C)C4=O [5c, 25-O-(3-methylbenzoyl)-25-O-desacetyrifabutin]	0.075 µM (≈ 0.0692 µg/mL)	1.2	0.065 µM		
CO[C@H]1/C=C/O[C@@]2(C)Oc3c(C)c(O)c4c(c3C2=O)C2=NC3(CCN(CC(C)C)CC3)NC2=C(NC(=O)/C(C)=C/C=C/[C@H](C)[C@H](O)[C@@H](C)[C@@H](O)[C@@H](C)[C@H](OC(=O)c2ccc(C)cc2)[C@@H]1C)C4=O [5d, 25-O-(4-methylbenzoyl)-25-O-desacetyrifabutin]	0.2 µM (≈ 0.185 µg/mL)	1.8	0.11 µM		
CO[C@H]1/C=C/O[C@@]2(C)Oc3c(C)c(O)c4c(c3C2=O)C2=NC3(CCN(CC(C)C)CC3)NC2=C(NC(=O)/C(C)=C/C=C/[C@H](C)[C@H](O)[C@@H](C)[C@@H](O)[C@@H](C)[C@H](OC(=O)c2ccccc2F)[C@@H]1C)C4=O [5e, 25-O-(2-fluorobenzoyl)-25-O-desacetyrifabutin]	0.06 µM (≈ 0.0556 µg/mL)	1.0	0.058 µM		
CO[C@H]1/C=C/O[C@@]2(C)Oc3c(C)c(O)c4c(c3C2=O)C2=NC3(CCN(CC(C)C)CC3)NC2=C(NC(=O)/C(C)=C/C=C/[C@H](C)[C@H](O)[C@@H](C)[C@@H](O)[C@@H](C)[C@H](OC(=O)N2CCN(C)C(C)C2)[C@@H]1C)C4=O (stereo partly shown) [UMN52]				0.097 µM (≈ 0.0917 µg/mL)	
CO[C@H]1/C=C/O[C@@]2(C)Oc3c(C)c(O)c4c(c3C2=O)C2=NC3(CCN(CC(C)C)CC3)NC2=C(NC(=O)/C(C)=C/C=C/[C@H](C)[C@H](O)[C@@H](C)[C@@H](O)[C@@H](C)[C@H](OC(=O)c2cc(Cl)c(Cl)cc2C(=O)O)[C@@H]1C)C4=O [UMN99, 25-O-(6-carboxyl-3,4-dichlorobenzoyl)-25-O-desacetyrifabutin]				0.1 µM (≈ 0.102 µg/mL)	
CO[C@H]1/C=C/O[C@@]2(C)Oc3c(C)c(O)c4c(c3C2=O)C2=NC3(CCN(CC(C)C)CC3)NC2=C(NC(=O)/C(C)=C/C=C/[C@H](C)[C@H](O)[C@@H](C)[C@@H](O)[C@@H](C)[C@H](OC(=O)NCc2cn(-c3cccc(Br)c3)nn2)[C@@H]1C)C4=O [UMN104]				0.032 µM (≈ 0.0347 µg/mL)	
CO[C@H]1/C=C/O[C@@]2(C)Oc3c(C)c(O)c4c(c3C2=O)C2=NC3(CCN(CC(C)C)CC3)NC2=C(NC(=O)/C(C)=C/C=C/[C@H](C)[C@H](O)[C@@H](C)[C@@H](O)[C@@H](C)[C@H](OC(=O)Nc2ccccc2F)[C@@H]1C)C4=O [UMN106]				0.034 µM (≈ 0.032 µg/mL)	
CO[C@H]1/C=C/O[C@@]2(C)Oc3c(C)c(O)c4c(c3C2=O)C2=NC3(CCN(CC(C)C)CC3)NC2=C(NC(=O)/C(C)=C/C=C/[C@H](C)[C@H](O)[C@@H](C)[C@@H](O)[C@@H](C)[C@H](OC(=O)Nc2cccc(F)c2)[C@@H]1C)C4=O [UMN107]				0.1 µM (≈ 0.0942 µg/mL)	
CO[C@H]1/C=C/O[C@@]2(C)Oc3c(C)c(O)c4c(c3C2=O)C2=NC3(CCN(CC(C)C)CC3)NC2=C(NC(=O)/C(C)=C/C=C/[C@H](C)[C@H](O)[C@@H](C)[C@@H](O)[C@@H](C)[C@H](OC(=O)Nc2ccc(F)cc2)[C@@H]1C)C4=O [UMN108]				0.062 µM (≈ 0.0584 µg/mL)	
CO[C@H]1/C=C/O[C@@]2(C)Oc3c(C)c(O)c4c(c3C2=O)C2=NC3(CCN(CC(C)C)CC3)NC2=C(NC(=O)/C(C)=C/C=C/[C@H](C)[C@H](O)[C@@H](C)[C@@H](O)[C@@H](C)[C@H](OC(=O)Nc2ccccn2)[C@@H]1C)C4=O [UMN117]					MIC [1, 6]: 0.025 µM (≈ 0.0231 µg/mL); ƒu [3]: 0.9%
CO[C@H]1/C=C/O[C@@]2(C)Oc3c(C)c(O)c4c(c3C2=O)C2=NC3(CCN(CC(C)C)CC3)NC2=C(NC(=O)/C(C)=C/C=C/[C@H](C)[C@H](O)[C@@H](C)[C@@H](O)[C@@H](C)[C@H](OC(=O)Nc2ccnnc2)[C@@H]1C)C4=O [UMN119]					MIC [1, 6]: 0.05 µM (≈ 0.0463 µg/mL); ƒu [3]: 6.1%
